Measured values taken from patent publication US11000510B2, “Methods of using anti-CD79b immunoconjugates” (Genentech, Inc., priority 2014, dated 2021).

Assays:
[1] = tested on: activated B-cell-like (ABC) subtype; settings: Br J Haematol 2013 Zhang et al.; cited from earlier work
[2] = tested on: non-ABC-DLBCL cells; settings: Br J Haematol 2013 Zhang et al.; cited from earlier work
[3] = tested on: TMD8 (ABC-DLBCL); test: Combination efficacy in tumor xenograft model of TMD8 (Example 5); settings: ADC 2 mg/kg iv once; GA101 1 mg/kg ip qwx3; lenalidomide 20 mg/kg po (qdx5)x3
Description: When the xenograft tumors reached desired volume, animals were randomized and received treatments (Day 0 of the study). There were seven treatment groups (1) vehicle, (2) GA101, (3) anti-CD79b-MC-vc-PAB-MMAE, (4) lenalidomide, (5) GA101+anti-CD79b-MC-vc-PAB-MMAE, (6) GA101+lenalidomide, and (7) GA101+lenalidomide+anti-CD79b-MC-vc-PAB-MMAE. CD79b-MC-vc-PAB-MMAE ADC was dosed once intravenously at 2 mg/kg, iv, once. GA101 dosed 1 mg/kg, ip, qwx3. Lenalidomide was administered at 20 mg/kg, po, (qdx5)×3.
As described above, tumors were measured 1-2 times a week throughout the study using UltraCal-IV calipers and tumor volume was calculated using following formula: tumor volume (mm^3)=0.5a×b^2, wherein a and b are the long and short diameters of the tumor, respectively.

[4] = tested on: Granta-519 human mantle-cell lymphoma; test: Combination efficacy in tumor xenograft model of Granta-519 (Example 3); type: in vivo; settings: ADC 1 mg/kg iv once; ABT-199 100 mg/kg orally once a day for 21 days
Description: To appropriately analyze the repeated measurement of tumor volumes from the same animals over time, a mixed modeling approach was used (Pinheiro J, et al. nlme: linear and nonlinear mixed effects models. 2009; R package, version 3.1-96). This approach addresses both repeated measurements and modest dropout rates due to non-treatment related removal of animals before the study end. Cubic regression splines were used to fit a non-linear profile to the time courses of log2 tumor volume at each dose level. These non-linear profiles were then related to dose within the mixed model. The results were plotted as fitted tumor volume of each group over time.

[5] = tested on: WSU-DLCL2 (DLBCL); test: Combination efficacy in tumor xenograft model of WSU-DLCL2 (Example 6); type: in vivo, C.B-17 SCID mice; settings: ADC 2 mg/kg iv once; GA101 30 mg/kg ip once; GDC-199 100 mg/kg po qdx21; GDC-032 10 mg/kg po qdx21; rituximab 30 mg/kg ip once
Description: GA101 dosed 30 mg/kg, ip, once. Bcl2 inhibitor, GDC-199, was dosed at 100 mg/kg, po, qdx21. PI3K inhibitor, GDC-032 was dosed at 10 mg/kg, po, qdx21.

Compound | growth suppression of ABC subtype [1] | effect on non-ABC-DLBCL cells [2] | anti-tumor efficacy (tumor volume, FIG. 3B) [3] | anti-tumor activity (fitted tumor volume over time, FIG. 2) [4] | effect on tumor growth (tumor volume, FIG. 4) [5]
Nc1cccc2c1CN(C1CCC(=O)NC1=O)C2=O (racemic) [lenalidomide, (RS)-3-(4-Amino-1-oxo 1,3-dihydro-2H-isoindol-2-yl)piperidine-2,6-dione] | preferentially suppresses the growth | minimal effect | little efficacy | – | –
CC1(C)CCC(CN2CCN(c3ccc(C(=O)NS(=O)(=O)c4ccc(NCC5CCOCC5)c([N+](=O)[O-])c4)c(Oc4cnc5[nH]ccc5c4)c3)CC2)=C(c2ccc(Cl)cc2)C1 [ABT-199, 4-(4-{[2-(4-chlorophenyl)-4,4-dimethylcyclohex-1-en-1-yl]methyl}piperazin-1-yl)-N-({3-nitro-4-[(tetrahydro-2H-pyran-4-ylmethyl)amino]phenyl}sulfonyl)-2-(1H-pyrrolo[2,3-b]pyridin-5-yloxy)benzamide] | – | – | – | did not result in anti-tumor activity | little effect on the tumor growth
Cc1nc(-c2cn3c(n2)-c2ccc(-c4cnn(C(C)(C)C(N)=O)c4)cc2OCC3)n(C(C)C)n1 [GDC-0032] | – | – | – | – | little effect on the tumor growth
GA101: anti-CD20 antibody; obinutuzumab is synonymous for GA101 or RO5072759; humanized B-Ly1 type II antibody | – | – | – | – | little effect on the tumor growth
